Several values for one entry are separate records, joined by “and”; a condition that tells them apart may be missing. Equal values may be shown once. Positions of bridges follow the written chain, without caps; N, C: chain ends. No end group written: not given here.
Columns and labels:
S. aureus ATCC 29213 = assay: virtual colony count (vCC) bactericidal assay, S. aureus; type: cell-based, Staphylococcus aureus
Procedure: (§1) All cryptdins were subjected to a virtual colony count assay (vCC) we have previously developed ([67]), in which E. coli ATCC 25922 and S. aureus ATCC 29213 are exposed to a 2-fold serial dilution of cryptdin for 2 h in 10 mM sodium phosphate buffer (pH 7.4), before bacterial growth in the presence of Mueller-Hinton broth is monitored spectrophotometrically at 650 nm for a period of 12 h. The dose-dependent killing of E. coli and S. aureus by all 17 cryptdins is shown as bacterial survival curves in Fig. 6. The virtual lethal doses (vLDs) of cryptdins at 50%, 10%, 1% and 0.1% bacterial survival (or the vLD50, vLD90, vLD99, and vLD99.9 values) are tabulated in Table 1. The bactericidal activity of the Crp1 subclass of cryptdins is highly variable despite a high degree of sequence identity, with Crp1, Crp6, Crp11, and Crp16 being the weakest against both strains and Crp3, Crp8 to Crp10, Crp13, Crp14, and Crp17 being the strongest. The vLD50, vLD90, vLD99 and vLD99.9 values for Crp11 to E. coli differ from those for Crp14 by 3.4-, 7.0-, 11.8-, and 12.7-fold, respectively; for comparison, the vLD values for Crp11 to S. aureus are 3.1-, 5.0-, 6.8-, and 8.1-fold versus those for Crp10, respectively. Overall, S. aureus appears more susceptible to cryptdin killing than E. coli.
(§2) Antimicrobial assays against E. coli ATCC 25922 and S. aureus ATCC 29213 were conducted using a published 96-well turbidimetric method called “virtual colony count” ([67]). Briefly, a 2-fold dilution series of cryptdin, ranging from 1 to 256 μg/mL in 10 mM sodium phosphate (pH 7.4), was incubated at 37°C for 2 h with E. coli or S. aureus at 1 × 10^6 CFU/mL (a total volume of 100 μL), followed by the addition of 100 μL of twice-concentrated Mueller-Hinton broth (MHB). In addition to […] controls containing no cryptdin, a negative control termed “input” consisted of a portion of the same cell suspension kept on ice during the initial 2 h of incubation and added to the microplate just before addition of 100 μL of twice-concentrated MHB. Kinetic measurements of bacterial growth at 37°C were taken every 5 min over the next 12 h spectrophotometrically at 650 nm using a Tecan Spark plate reader. Data analysis utilized a Visual Basic script to automate the determination of the time necessary for each growth curve to reach a threshold change in optical density at 650 nm of 0.02 (ΔOD650), as previously described ([67]). Since the threshold times are inversely and linearly dependent on the logarithmic concentration of bacteria ([67]), survival data can be readily inferred from these calibration curves established in the absence of cryptdin. The rate of survival was calculated as the number of CFU of cryptdin-treated cells/number of CFU of control cells.

E. coli ATCC 25922 = assay: virtual colony count (vCC) bactericidal assay, E. coli; type: cell-based, Escherichia coli
Procedure: as §1, §2

[1] = tested on: same cryptdin peptide immobilized on a CM5 sensor chip; assay: surface plasmon resonance self-association of cryptdins; type: binding, mouse; conditions: 15.6-2,000 nM analyte over 400 to 500 RU of the same peptide on CM5 chip, 25°C, 10 mM HEPES, 150 mM NaCl, 3 mM EDTA, surfactant P20, pH 7.4; additional 150 mM NaCl for Crp1 and Crp11; Kd unattainable
Procedure: We examined Crp1, Crp4, Crp11, and Crp14 for their ability to self-associate at 25°C in 10 mM HEPES, 150 mM NaCl, 3 mM EDTA, 0.005% surfactant P20 (pH 7.4) using surface plasmon resonance (SPR) techniques. […] Due to the heterogenetic nature of defensin self-association and the lack of an appropriate mathematic model for data analysis, an accurate measurement of thermodynamic parameters such as Kd was unattainable.
FIG 10 Representative association and dissociation kinetics of cryptdins analyzed by surface plasmon resonance. Cryptdins in a 2-fold dilution series at concentrations ranging from 15.625 to 2000 nM were analyzed on self-immobilized sensor chips with resonance units (RUs) of 404 for Crp1 (A), 541 for Crp4 (B), 458 for Crp11 (C), 488 for Crp14 (D). To suppress nonspecific electrostatic interactions, an additional 150 mM NaCl was added to the running buffer for Crp1 and Crp11.
Surface plasmon resonance (SPR) experiments were performed, as described previously ([80]), on a BIAcore T200 system, at 25°C, in HBS-EP buffer (10 mM HEPES, 150 mM NaCl, 3 mM EDTA, […] surfactant P20 [pH 7.4]), with or without additional 150 mM NaCl. […] Analytes in a 2-fold dilution series at concentrations varying from 15.625 to 2,000 nM were injected into the flow cells at 30 μL/min in the running buffer, and association and dissociation assessed for 5 and 10 min, respectively. […]

[2] = dynamic light scattering (DLS) particle size / self-association in solution; type: physicochemical; conditions: DLS number distribution, equilibrated 120 s, room temperature, Malvern Zetasizer, representative
Procedure: For verification, we subjected the four cryptdin peptides at 10 μM to dynamic light scattering (DLS) analysis in phosphate saline buffers at pH 7.4 and pH 3.0. […] However, the particle sizes of Crp1 and Crp11 shifted dramatically at the elevated pH, to ~200 nm and >1,000 nm, respectively, indicative of formation of high-ordered soluble aggregates in solution. These DLS data are in qualitative agreement with the SPR findings.
Of note, Cryp1 and Cryp11 are among the weakest cryptdins against E. coli and S. aureus, whereas Cryp4 and Cryp14 are potently bactericidal. This phenomenon raised an intriguing possibility that the ability of cryptdins to self-associate in solution could perhaps inform their antibacterial activity.
Dynamic light scattering (DLS) is a technique that can be used to measure the hydrodynamic diameter of proteins in solution. The principle of this technique lies in the fact that the apparent size of a protein molecule is inversely related to the speed at which it diffuses in a constant, random Brownian motion; size information can be derived mathematically through deconvolution algorithms once the rate at which the intensity of scattered laser light fluctuates as a function of time is determined by DLS ([93]). […]

[3] = virtual lethal dose killing 90% of input cells, 2 h at 37°C in 10 mM sodium phosphate pH 7.4, three independent assays

In the case of “Crp1: mouse α-defensin cryptdin isoform 1, chemically synthesized and oxidatively folded, three disulfides (LRDLVCYCRSRGCKGRERMNGTCRKGHLLYTLCCR; disulfide 13-33, 8-23, 6-34; not fully specified; UniProt P11477 59-93, looked up)”, the “concentration at which S. aureus was completely killed / growth eliminated” value (S. aureus ATCC 29213; vCC survival curves, 2-fold dilution series, mean of triplicate experiments) is reported as 32 µg/mL, the “Mean vLD ± SD, S. aureus ATCC 29213, vLD50” value (S. aureus ATCC 29213; virtual lethal dose killing 50% of input cells, 2 h at 37°C in 10 mM sodium phosphate pH 7.4, 1 × 10^6 CFU/mL, three independent assays) is reported as 3.9 ± 0.6 µg/mL and the “Mean vLD ± SD, S. aureus ATCC 29213, vLD90” value (S. aureus ATCC 29213; [3]) is reported as 6.1 ± 0.5 µg/mL. The “Mean vLD ± SD, S. aureus ATCC 29213, vLD99” value (S. aureus ATCC 29213; virtual lethal dose killing 99% of input cells, 2 h at 37°C in 10 mM sodium phosphate pH 7.4, three independent assays) was 9.1 ± 0.3 µg/mL, the “Mean vLD ± SD, S. aureus ATCC 29213, vLD99.9” value (S. aureus ATCC 29213; virtual lethal dose killing 99.9% of input cells, 2 h at 37°C in 10 mM sodium phosphate pH 7.4, three independent assays) was 11.9 µg/mL and 11.9 ± 0.5 µg/mL and the “reduction of E. coli survival” value (E. coli ATCC 25922; peptide at 256 μg/mL, vCC) was 5 orders of magnitude. For the same substance, the “Mean vLD ± SD, E. coli ATCC 25922, vLD50” value (E. coli ATCC 25922; virtual lethal dose killing 50% of input cells, 2-fold dilutions 1-256 μg/mL, 2 h at 37°C in 10 mM sodium phosphate pH 7.4, 1 × 10^6 CFU/mL, then MHB growth 12 h read at 650 nm, three independent assays) was 5.9 ± 0.3 µg/mL, the “Mean vLD ± SD, E. coli ATCC 25922, vLD90” value (E. coli ATCC 25922; [3]) was 13.4 ± 0.6 µg/mL and the “Mean vLD ± SD, E. coli ATCC 25922, vLD99” value (E. coli ATCC 25922; virtual lethal dose killing 99% of input cells, 2 h at 37°C in 10 mM sodium phosphate pH 7.4, three independent assays, LOD = limit of detection) was 25.4 ± 2.3 µg/mL. For the same substance, the “Mean vLD ± SD, E. coli ATCC 25922, vLD99.9” value (E. coli ATCC 25922; virtual lethal dose killing 99.9% of input cells, 2 h at 37°C in 10 mM sodium phosphate pH 7.4, three independent assays, LOD = limit of detection) was 41.9 ± 4.8 µg/mL, the “self-association/dissociation kinetics by SPR” value [1] was “slow association, followed by slow dissociation kinetics” and the “particle size in diameter by DLS, pH 3.0” value ([2]; 10 μM peptide in phosphate saline buffer pH 3.0, filtered 0.22 μm disc membrane) was “around 1 nm”. For the same substance, the “particle size in diameter by DLS, pH 7.4” value ([2]; 10 μM peptide in phosphate saline buffer pH 7.4, filtered 0.22 μM disc membrane) was ~ 200 nm.
